This note sets out measurements from patent US10100097B2, “GIP-GLP-1 dual agonist compounds and methods” (Zealand Pharma A/S, priority 2012, dated 2018).

Numbered stars: 1 amine (or outer) side, 2 acyl side, 3 side chain; on linkers, the order of the positions; unused ones are H or OH. Square brackets hold non-standard residues; d marks the D form. Side chains are listed from the residue outwards. Peptide text beside a SMILES is read from it. * marks the point of attachment. γGlu = O=C(O)[C@H](CCC(=O)[*:2])N[*:1]; 1Nal = N[C@@H](Cc1cccc2ccccc12)C(=O)O; Palmitoyl = CCCCCCCCCCCCCCCC(=O)*; Aib = CC(C)(N)C(=O)O

T1 sequence (P43220 24-463): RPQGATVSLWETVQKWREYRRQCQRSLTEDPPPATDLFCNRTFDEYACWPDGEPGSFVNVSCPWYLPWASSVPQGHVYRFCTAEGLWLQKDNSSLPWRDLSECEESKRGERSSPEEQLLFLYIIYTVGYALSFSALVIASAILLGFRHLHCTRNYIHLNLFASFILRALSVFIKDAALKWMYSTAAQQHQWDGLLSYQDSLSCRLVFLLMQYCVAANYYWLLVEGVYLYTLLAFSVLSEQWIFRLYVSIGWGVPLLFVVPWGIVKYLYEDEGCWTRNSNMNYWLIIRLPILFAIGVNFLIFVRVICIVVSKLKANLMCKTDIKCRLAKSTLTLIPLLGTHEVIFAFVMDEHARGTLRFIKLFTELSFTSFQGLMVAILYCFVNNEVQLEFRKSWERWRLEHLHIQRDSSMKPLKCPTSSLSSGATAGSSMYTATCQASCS

This test addresses T1, human GLP-1 R (Homo sapiens, UniProt P43220).
T1 construct: expressed in transfected cells
Nature of the test: Human GLP-1 receptor (GLP-1 R) activity assay, cAMP induction (AlphaScreen cAMP kit). The test is classed as cell-based. The settings on record: HEK293 cells expressing the human GLP-1 R, 15 min at 37° C., average values of multiple determinations, read-out: GLP1 R (EC50 in nM). Here is the method:
Human GIP Receptor (GIP R) and GLP-1 Receptor (GLP-1 R) Activity Assay
In vitro effects of peptide conjugates of the invention were assessed by measuring the induction of cAMP following stimulation of the respective receptor by GIP, GLP1 or analogues of these, as outlined in the invention, using the AlphaSceen® cAMP kit from Perkin-Elmer according to instructions. Briefly. HEK293 cells expressing the human GIP R or GLP-1 R (stable cell lines generated through transfection of the cDNA for human GIP R or GLP-1 and selection of stable clones) were seeded at 30,000 cells/well in 96-well microtiter plates coated with 0.01% poly-L-lysine, and grown for 1 day in culture in 200 μl growth medium (DMEM, 10% FCS, Penicillin (100 IU/ml), Streptomycin (100 μg/ml)). On the day of analysis, growth medium was removed and the cells were washed once with […] Tyrode's buffer (Tyrode's Salts (9.6 g/1), 10 mM HEPES, pH 7.4). […] The Assay buffer was removed and cells are lysed in 80 μl Lysis buffer (0.1% w/v BSA, 5 mM HEPES, 0.3% v/v Tween-20) per well. From each well 10 μl lysed cells was transferred to a 384-well plate and mixed with 15 μl bead-mix (1 Unit/15 μl anti-cAMP Acceptor Beads, 1 Unit/15 μl Donor Beads, and 1 Unit/15 μl Biotinylated cAMP in Assay Buffer). The plates were mixed and incubated in the dark for an hour at room temperature before measuring using an Envision™ plate reader (Perkin-Elmer).
Background: In Alpha technology, singlet oxygen from a donor bead excites a nearby acceptor bead.
In the case of `CC[C@H](C)[C@H](NC(=O)[C@H](CO)NC(=O)[C@H](Cc1ccc(O)cc1)NC(=O)[C@H](CC(=O)O)NC(=O)[C@H](CO)NC(=O)[C@@H](NC(=O)[C@H](Cc1ccccc1)NC(=O)[C@@H](NC(=O)CNC(=O)[C@H](CCC(=O)O)NC(=O)C(C)(C)NC(=O)[C@@H](N)Cc1ccc(O)cc1)[C@@H](C)O)[C@@H](C)O)C(=O)N[C@@H](Cc1ccc(O)cc1)C(=O)N[C@@H](CC(C)C)C(=O)N[C@@H](CC(=O)O)C(=O)N[C@@H](CO)C(=O)N[C@@H](CCCCN)C(=O)N[C@@H](C)C(=O)N[C@@H](CCCCN)C(=O)N[C@@H](CCCNC(=N)N)C(=O)N[C@@H](C)C(=O)N[C@@H](Cc1ccccc1)C(=O)N[C@H](C(=O)N[C@@H](CC(N)=O)C(=O)N[C@@H](Cc1c[nH]c2ccccc12)C(=O)N[C@@H](CC(C)C)C(=O)N[C@@H](CC(C)C)C(=O)N[C@@H](C)C(=O)NC(C)(C)C(=O)N[C@@H](CCCCN)C(N)=O)C(C)C` [Compound 18] (H-Y[Aib]EGTFTSDYSIYLDSKAKRAFVNWLLA[Aib]K-NH2), the EC50 is 0.015 nM.
The value for `CC[C@H](C)[C@H](NC(=O)[C@H](CO)NC(=O)[C@H](Cc1ccc(O)cc1)NC(=O)[C@H](CC(=O)O)NC(=O)[C@H](CO)NC(=O)[C@@H](NC(=O)[C@H](Cc1ccccc1)NC(=O)[C@@H](NC(=O)CNC(=O)[C@H](CCC(=O)O)NC(=O)C(C)(C)NC(=O)[C@@H](N)Cc1ccc(O)cc1)[C@@H](C)O)[C@@H](C)O)C(=O)N[C@@H](Cc1ccc(O)cc1)C(=O)N[C@@H](CC(C)C)C(=O)N[C@@H](CC(=O)O)C(=O)N[C@@H](CCCCN)C(=O)N[C@@H](CCCCN)C(=O)N[C@@H](C)C(=O)N[C@@H](CCC(N)=O)C(=O)N[C@@H](CCCNC(=N)N)C(=O)N[C@@H](C)C(=O)N[C@@H](Cc1ccccc1)C(=O)N[C@H](C(=O)N[C@@H](CCCCN)C(=O)N[C@@H](Cc1c[nH]c2ccccc12)C(=O)N[C@@H](CC(C)C)C(=O)N[C@@H](CC(C)C)C(=O)N[C@@H](C)C(=O)NC(C)(C)C(=O)N[C@@H](CCCCN)C(N)=O)C(C)C` [Compound 20] (H-Y[Aib]EGTFTSDYSIYLDKKAQRAFVKWLLA[Aib]K-NH2) was 0.009 nM; that for `CCCCCCCCCCCCCCCC(=O)N[C@@H](CCC(=O)NCCCC[C@H](NC(=O)[C@H](CO)NC(=O)[C@H](CC(=O)O)NC(=O)[C@H](CC(C)C)NC(=O)[C@H](Cc1ccc(O)cc1)NC(=O)[C@H](CCCCN)NC(=O)[C@H](CO)NC(=O)[C@H](Cc1ccc(O)cc1)NC(=O)[C@H](CC(=O)O)NC(=O)[C@H](CO)NC(=O)[C@@H](NC(=O)[C@H](Cc1ccccc1)NC(=O)[C@@H](NC(=O)CNC(=O)[C@H](CCC(=O)O)NC(=O)C(C)(C)NC(=O)[C@@H](N)Cc1ccc(O)cc1)[C@@H](C)O)[C@@H](C)O)C(=O)N[C@@H](C)C(=O)N[C@@H](C)C(=O)N[C@@H](Cc1c[nH]cn1)C(=O)N[C@@H](CC(=O)O)C(=O)N[C@@H](Cc1ccccc1)C(=O)N[C@H](C(=O)N[C@@H](CCC(=O)O)C(=O)N[C@@H](Cc1c[nH]c2ccccc12)C(=O)N[C@@H](CC(C)C)C(=O)N[C@@H](CC(C)C)C(=O)N[C@@H](CO)C(=O)N[C@@H](C)C(N)=O)C(C)C)C(=O)O` [Compound 45] (H-Y[Aib]EGTFTSDYSKYLDSK([γGlu-Palmitoyl])AAHDFVEWLLSA-NH2) was 0.11 nM; that for `CCCCCCCCCCCCCCCC(=O)N[C@@H](CCC(=O)NCCCC[C@H](NC(=O)[C@H](CCC(=O)O)NC(=O)[C@H](CC(=O)O)NC(=O)[C@H](CC(C)C)NC(=O)[C@H](Cc1ccc(O)cc1)NC(=O)[C@@H](NC(=O)[C@H](CO)NC(=O)[C@H](Cc1ccc(O)cc1)NC(=O)[C@H](CC(=O)O)NC(=O)[C@H](CO)NC(=O)[C@@H](NC(=O)[C@H](Cc1ccccc1)NC(=O)[C@@H](NC(=O)CNC(=O)[C@H](CCC(=O)O)NC(=O)C(C)(C)NC(=O)[C@@H](N)Cc1ccc(O)cc1)[C@@H](C)O)[C@@H](C)O)[C@@H](C)CC)C(=O)N[C@@H](C)C(=O)N[C@@H](C)C(=O)N[C@@H](CCCCN)C(=O)N[C@@H](CC(=O)O)C(=O)N[C@@H](Cc1ccccc1)C(=O)N[C@H](C(=O)N[C@@H](CCC(=O)O)C(=O)N[C@@H](Cc1c[nH]c2ccccc12)C(=O)N[C@@H](CC(C)C)C(=O)N[C@@H](CCC(=O)O)C(=O)N[C@@H](CO)C(=O)N[C@@H](C)C(N)=O)C(C)C)C(=O)O` [Compound 48] (H-Y[Aib]EGTFTSDYSIYLDEK([γGlu-Palmitoyl])AAKDFVEWLESA-NH2) was 0.041 nM.
The value for `CCCCCCCCCCCCCCCC(=O)N[C@@H](CCC(=O)NCCCC[C@H](NC(=O)[C@H](CCCCN)NC(=O)[C@H](CC(=O)O)NC(=O)[C@H](CC(C)C)NC(=O)[C@H](Cc1ccc(O)cc1)NC(=O)[C@@H](NC(=O)[C@H](CO)NC(=O)[C@H](Cc1ccc(O)cc1)NC(=O)[C@H](CC(=O)O)NC(=O)[C@H](CO)NC(=O)[C@@H](NC(=O)[C@H](Cc1ccccc1)NC(=O)[C@@H](NC(=O)CNC(=O)[C@H](CCC(=O)O)NC(=O)C(C)(C)NC(=O)[C@@H](N)Cc1ccc(O)cc1)[C@@H](C)O)[C@@H](C)O)[C@@H](C)CC)C(=O)N[C@@H](C)C(=O)N[C@@H](CCC(N)=O)C(=O)N[C@@H](CCCNC(=N)N)C(=O)N[C@@H](C)C(=O)N[C@@H](Cc1ccccc1)C(=O)N[C@H](C(=O)N[C@@H](CC(N)=O)C(=O)N[C@@H](Cc1c[nH]c2ccccc12)C(=O)N[C@@H](CC(C)C)C(=O)N[C@@H](CC(C)C)C(=O)N[C@@H](C)C(=O)NC(C)(C)C(=O)N[C@@H](CCCCN)C(=O)N1CCC[C@H]1C(=O)N[C@@H](CO)C(=O)N[C@@H](CO)C(=O)NCC(=O)N[C@@H](C)C(=O)N1CCC[C@H]1C(=O)N1CCC[C@H]1C(=O)N1CCC[C@H]1C(=O)N[C@@H](CO)C(N)=O)C(C)C)C(=O)O` [Compound 35] was 0.022 nM.
In the case of `CC[C@H](C)[C@H](NC(=O)[C@H](CO)NC(=O)[C@H](Cc1ccc(O)cc1)NC(=O)[C@H](CC(=O)O)NC(=O)[C@H](CO)NC(=O)[C@@H](NC(=O)[C@H](Cc1ccccc1)NC(=O)[C@@H](NC(=O)CNC(=O)[C@H](CCC(=O)O)NC(=O)C(C)(C)NC(=O)[C@@H](N)Cc1ccc(O)cc1)[C@@H](C)O)[C@@H](C)O)C(=O)N[C@@H](Cc1ccc(O)cc1)C(=O)N[C@@H](CC(C)C)C(=O)N[C@@H](CC(=O)O)C(=O)N[C@@H](CCCCN)C(=O)N[C@@H](CCCCN)C(=O)N[C@@H](C)C(=O)N[C@@H](CCC(N)=O)C(=O)N[C@@H](CCCNC(=N)N)C(=O)N[C@@H](C)C(=O)N[C@@H](Cc1ccccc1)C(=O)N[C@H](C(=O)N[C@@H](CC(N)=O)C(=O)N[C@@H](Cc1c[nH]c2ccccc12)C(=O)N[C@@H](CC(C)C)C(=O)N[C@@H](CC(C)C)C(=O)N[C@@H](C)C(=O)NC(C)(C)C(=O)N[C@@H](CCCCN)C(=O)N[C@@H](Cc1ccc(O)cc1)C(=O)NCC(=O)N[C@@H](Cc1cccc2ccccc12)C(=O)N[C@@H](CC(C)C)C(=O)N[C@@H](CC(=O)O)C(=O)N[C@@H](Cc1ccccc1)C(N)=O)C(C)C` [Compound 25] (H-Y[Aib]EGTFTSDYSIYLDKKAQRAFVNWLLA[Aib]KYG[1Nal]LDF-NH2), the EC50 worked out at 0.041 nM.
Regarding `CC[C@H](C)[C@H](NC(=O)[C@H](CO)NC(=O)[C@H](Cc1ccc(O)cc1)NC(=O)[C@H](CC(=O)O)NC(=O)[C@H](CO)NC(=O)[C@@H](NC(=O)[C@H](Cc1ccccc1)NC(=O)[C@@H](NC(=O)CNC(=O)[C@H](CCC(=O)O)NC(=O)C(C)(C)NC(=O)[C@@H](N)Cc1ccc(O)cc1)[C@@H](C)O)[C@@H](C)O)C(=O)N[C@@H](Cc1ccc(O)cc1)C(=O)N[C@@H](CC(C)C)C(=O)N[C@@H](CC(=O)O)C(=O)N[C@@H](CO)C(=O)N[C@@H](CCCCN)C(=O)N[C@@H](C)C(=O)N[C@@H](C)C(=O)N[C@@H](Cc1c[nH]cn1)C(=O)N[C@@H](CC(=O)O)C(=O)N[C@@H](Cc1ccccc1)C(=O)N[C@H](C(=O)N[C@@H](CCC(=O)O)C(=O)N[C@@H](Cc1c[nH]c2ccccc12)C(=O)N[C@@H](CC(C)C)C(=O)N[C@@H](CC(C)C)C(=O)N[C@@H](CO)C(=O)N[C@@H](C)C(=O)NCC(=O)N1CCC[C@H]1C(=O)N[C@@H](CO)C(=O)N[C@@H](CO)C(=O)NCC(=O)N[C@@H](C)C(=O)N1CCC[C@H]1C(=O)N1CCC[C@H]1C(=O)N1CCC[C@H]1C(=O)N[C@@H](CO)C(N)=O)C(C)C` [Compound 55] (H-Y[Aib]EGTFTSDYSIYLDSKAAHDFVEWLLSAGPSSGAPPPS-NH2), the EC50 amounted to 0.0087 nM.
Take `CCCCCCCCCCCCCCCC(=O)N[C@@H](CCC(=O)NCCCC[C@H](NC(=O)[C@H](CCC(=O)O)NC(=O)[C@H](CC(=O)O)NC(=O)[C@H](CC(C)C)NC(=O)[C@H](Cc1ccc(O)cc1)NC(=O)[C@@H](NC(=O)[C@H](CO)NC(=O)[C@H](Cc1ccc(O)cc1)NC(=O)[C@H](CC(=O)O)NC(=O)[C@H](CO)NC(=O)[C@@H](NC(=O)[C@H](Cc1ccccc1)NC(=O)[C@@H](NC(=O)CNC(=O)[C@H](CCC(=O)O)NC(=O)C(C)(C)NC(=O)[C@@H](N)Cc1ccc(O)cc1)[C@@H](C)O)[C@@H](C)O)[C@@H](C)CC)C(=O)N[C@@H](C)C(=O)N[C@@H](C)C(=O)N[C@@H](CCCCN)C(=O)N[C@@H](CCC(=O)O)C(=O)N[C@@H](Cc1ccccc1)C(=O)N[C@H](C(=O)N[C@@H](CCC(=O)O)C(=O)N[C@@H](Cc1c[nH]c2ccccc12)C(=O)N[C@@H](CC(C)C)C(=O)N[C@@H](CCC(=O)O)C(=O)N[C@@H](CO)C(=O)N[C@@H](C)C(N)=O)[C@@H](C)CC)C(=O)O` [Compound 34] (H-Y[Aib]EGTFTSDYSIYLDEK([γGlu-Palmitoyl])AAKEFIEWLESA-NH2): the EC50 turned out to be 0.031 nM.

As a reminder, the EC50 is the midpoint of the concentration-response curve.
